Assay results reported in the CheMixHub ionic liquid set.

Test: xn = mol fraction of the nth substance listed
Settings: for electrical conductivity: x1 = 1

CCCC[P+](CCCC)(CCCC)CCCC.[Br-] + OCCO + O
viscosity [mPa·s], 101.3 kPa
Settings | x1 = 0.0383, x2 = 0.0767 | x1 = 0.06893, x2 = 0.1381 | x1 = 0.09557, x2 = 0.1914 | x1 = 0.1302, x2 = 0.2608 | x1 = 0.1675, x2 = 0.3355 | x1 = 0.1968, x2 = 0.3942 | x1 = 0.2368, x2 = 0.4742 | x1 = 0.2634, x2 = 0.5276 | x1 = 0.3054, x2 = 0.6116 | x1 = 0.333, x2 = 0.667
293.15 K | 4.67 | 11.5 | 20.5 | 35.1 | 50.8 | 62 | 74.1 | 82.3 | 105 | 122
298.15 K | 3.8 | 9.08 | 16.1 | 27.2 | 38.8 | 48.1 | 57 | 64.1 | 78.1 | 93.4
303.15 K | 3.15 | 7.34 | 13 | 21.7 | 31 | 38.2 | 44.5 | 49.4 | 63.7 | 72.4
308.15 K | 2.74 | 6.11 | 10.6 | 17.7 | 24.9 | 30.1 | 35.3 | 39.5 | 50.2 | 56.9
313.15 K | 2.35 | 5.21 | 8.88 | 14.4 | 20.5 | 24.5 | 28.3 | 32.2 | 39.9 | 45.3
318.15 K | 2.08 | 4.43 | 7.33 | 11.9 | 16.8 | 20.1 | 23.1 | 26.4 | 32.4 | 36.6
323.15 K | 1.84 | 3.8 | 6.34 | 10.1 | 13.9 | 16.8 | 19 | 21.9 | 26.6 | 29.9

CCCC[P+](CC)(CCCC)CCCC.[Br-] + OCCOCCO
101 kPa, x1 = 0.333
Settings | viscosity [mPa·s]
333.15 K | 23.07
353.15 K | 12.73

CCCCCCCC[n+]1ccc2ccccc2c1.O=S(=O)([N-]S(=O)(=O)C(F)(F)F)C(F)(F)F + OCCc1ccccc1
101 kPa
Settings | viscosity [mPa·s]
298.15 K, x2 = 0.5766 | 60.64
298.15 K, x2 = 0.8956 | 18.61
308.15 K, x2 = 0.695 | 25
318.15 K, x2 = 0.1985 | 71.5
318.15 K, x2 = 0.3748 | 45.28
318.15 K, x2 = 0.5766 | 23.86
328.15 K, x2 = 0.0851 | 58.53
328.15 K, x2 = 0.3748 | 30.17
328.15 K, x2 = 0.5766 | 16.54
328.15 K, x2 = 0.695 | 11.76
338.15 K, x2 = 0.0851 | 39.05
338.15 K, x2 = 0.3748 | 21.2
338.15 K, x2 = 0.695 | 8.67

CC[n+]1ccn(C)c1.O=S(=O)([O-])C(F)(F)F + [I-].[Li+]
101 kPa
Settings | electrical conductivity [S/m]
288.15 K | 0.605
298.15 K | 0.859
333.15 K | 2.24

CCCCCCCC[n+]1ccc2ccccc2c1.O=S(=O)([N-]S(=O)(=O)C(F)(F)F)C(F)(F)F + c1ccccc1
101 kPa
Settings | viscosity [mPa·s]
298.15 K, x2 = 0 | 369
298.15 K, x2 = 0.4679 | 67
298.15 K, x2 = 0.673 | 10.93
298.15 K, x2 = 0.7443 | 5.93
308.15 K, x2 = 0.4679 | 40.99
318.15 K, x2 = 0 | 108.7
318.15 K, x2 = 0.332 | 47.7
318.15 K, x2 = 0.5663 | 16.93
328.15 K, x2 = 0.1505 | 50.4
328.15 K, x2 = 0.332 | 31.8
328.15 K, x2 = 0.673 | 4.75
338.15 K, x2 = 0.673 | 3.83
338.15 K, x2 = 0.8143 | 1.48
348.15 K, x2 = 0.332 | 16.29
348.15 K, x2 = 0.654 | 4.92
348.15 K, x2 = 0.8961 | 0.49

CCCCCCCC[n+]1ccc2ccccc2c1.O=S(=O)([N-]S(=O)(=O)C(F)(F)F)C(F)(F)F + c1ccncc1
101 kPa
Settings | viscosity [mPa·s]
308.15 K, x2 = 0.0945 | 155
308.15 K, x2 = 0.8199 | 5.32
328.15 K, x2 = 0 | 67.9
328.15 K, x2 = 0.7274 | 4.82
338.15 K, x2 = 0.0945 | 38.2
338.15 K, x2 = 0.5383 | 10.76
338.15 K, x2 = 0.8199 | 3.09
348.15 K, x2 = 0.0945 | 26.97

CCCCCCCC[n+]1ccc2ccccc2c1.O=S(=O)([N-]S(=O)(=O)C(F)(F)F)C(F)(F)F + c1ccsc1
101 kPa
Settings | viscosity [mPa·s]
298.15 K, x2 = 0.542 | 42.73
298.15 K, x2 = 0.821 | 7.64
308.15 K, x2 = 0.0964 | 158.7
308.15 K, x2 = 0.542 | 27.8
308.15 K, x2 = 0.6385 | 16.12
308.15 K, x2 = 0.821 | 6.02
308.15 K, x2 = 0.9065 | 2.78
318.15 K, x2 = 0 | 108.7
318.15 K, x2 = 0.0964 | 92.2
318.15 K, x2 = 0.2739 | 54.7
318.15 K, x2 = 0.9065 | 2.36
338.15 K, x2 = 0.3572 | 20.4
348.15 K, x2 = 0.4456 | 11.37
